According to PMC3330828 (2012):

What was measured:
[1] = target: T1, caspase-1 (Homo sapiens, UniProt P29466); assay: in vitro fluorometric enzyme assay; assay type: biochemical
T1 sequence (P29466 120-297): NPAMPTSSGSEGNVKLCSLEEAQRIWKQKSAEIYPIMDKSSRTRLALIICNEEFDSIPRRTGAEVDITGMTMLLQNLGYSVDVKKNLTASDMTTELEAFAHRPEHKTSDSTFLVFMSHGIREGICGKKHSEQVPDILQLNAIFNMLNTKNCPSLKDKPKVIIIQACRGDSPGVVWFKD
T1 sequence (P29466 317-404): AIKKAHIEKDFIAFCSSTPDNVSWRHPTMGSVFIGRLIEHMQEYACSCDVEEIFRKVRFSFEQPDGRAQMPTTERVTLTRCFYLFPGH

[2] = target: T2, caspase-3 (Homo sapiens, UniProt P42574); assay: in vitro fluorometric enzyme assay; assay type: biochemical
T2 sequence (P42574 29-175): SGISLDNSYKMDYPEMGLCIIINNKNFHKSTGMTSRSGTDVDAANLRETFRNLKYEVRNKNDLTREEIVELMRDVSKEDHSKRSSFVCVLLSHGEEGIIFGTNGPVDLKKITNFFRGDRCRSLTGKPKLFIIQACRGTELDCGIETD
T2 sequence (P42574 176-277): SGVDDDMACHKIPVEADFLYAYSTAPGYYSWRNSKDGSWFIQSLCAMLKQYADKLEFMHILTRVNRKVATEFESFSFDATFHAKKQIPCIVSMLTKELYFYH

| IC50 [1] | IC50 [2] | Substance |
| --- | --- | --- |
| 100 µM | 200 µM | berkedrimane A [compound 1] |
| 90 µM | 50 µM | berkedrimane B [compound 2] |
